This is an account of results in EP0234946A2, “New compounds” (THE WELLCOME FOUNDATION LIMITED, priority 1986, dated 1987).

The assay concerns the target T1, angiotensin converting enzyme (Cavia porcellus, UniProt H0UWL7).
T1 construct: from tissue; host or cells: guinea pig ileum
T1 sequence (H0UWL7 33-1302): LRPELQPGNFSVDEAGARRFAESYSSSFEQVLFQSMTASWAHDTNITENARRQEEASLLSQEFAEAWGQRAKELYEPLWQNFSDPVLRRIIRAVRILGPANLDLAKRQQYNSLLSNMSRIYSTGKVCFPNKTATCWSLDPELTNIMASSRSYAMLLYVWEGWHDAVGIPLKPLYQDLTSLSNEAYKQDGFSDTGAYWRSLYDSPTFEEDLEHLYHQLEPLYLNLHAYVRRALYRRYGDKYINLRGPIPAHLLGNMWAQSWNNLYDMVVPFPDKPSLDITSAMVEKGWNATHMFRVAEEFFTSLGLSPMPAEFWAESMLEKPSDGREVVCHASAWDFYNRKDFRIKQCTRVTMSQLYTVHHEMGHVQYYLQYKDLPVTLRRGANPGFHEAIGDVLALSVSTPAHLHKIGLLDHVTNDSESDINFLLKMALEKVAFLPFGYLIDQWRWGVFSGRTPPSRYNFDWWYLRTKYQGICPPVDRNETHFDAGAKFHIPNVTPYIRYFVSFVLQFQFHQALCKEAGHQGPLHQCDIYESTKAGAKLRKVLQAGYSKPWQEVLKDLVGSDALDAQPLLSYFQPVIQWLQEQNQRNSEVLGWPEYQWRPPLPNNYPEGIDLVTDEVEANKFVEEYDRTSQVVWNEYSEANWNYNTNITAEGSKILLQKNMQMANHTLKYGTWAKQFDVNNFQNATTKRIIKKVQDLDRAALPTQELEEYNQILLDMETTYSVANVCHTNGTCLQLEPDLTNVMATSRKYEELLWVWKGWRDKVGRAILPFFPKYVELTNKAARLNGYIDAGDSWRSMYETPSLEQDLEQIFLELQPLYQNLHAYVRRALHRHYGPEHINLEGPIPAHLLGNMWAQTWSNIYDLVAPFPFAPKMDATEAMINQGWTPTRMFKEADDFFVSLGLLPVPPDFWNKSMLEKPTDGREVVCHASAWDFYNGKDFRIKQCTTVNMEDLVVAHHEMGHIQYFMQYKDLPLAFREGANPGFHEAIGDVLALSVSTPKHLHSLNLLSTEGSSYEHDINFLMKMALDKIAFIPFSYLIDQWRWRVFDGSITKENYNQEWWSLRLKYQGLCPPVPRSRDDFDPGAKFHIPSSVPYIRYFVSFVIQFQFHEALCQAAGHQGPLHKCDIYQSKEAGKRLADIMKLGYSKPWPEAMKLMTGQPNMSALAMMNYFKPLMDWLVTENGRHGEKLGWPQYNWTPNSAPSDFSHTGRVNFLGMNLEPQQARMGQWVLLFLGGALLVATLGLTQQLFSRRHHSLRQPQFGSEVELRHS
The experiment in a line: angiotensin converting enzyme inhibition in guinea pig ileum (inhibition of contractile responses to Angiotensin I). The settings on record: dose-dependent inhibition of contractile responses to Angiotensin I, read-out: EC50 (the source's name). The source says: (b) ACE inhibition in vitro
In an assay for angiotensin converting enzyme inhibition in guinea pig ileum, dose-dependent inhibition of contractile responses to Angiotensin I gave the following results: […]
Consider `CC(C)NC[C@H](O)COc1cccc2[nH]c(C(=O)NCCCC[C@H](N[C@@H](C)C(=O)N3CCC[C@H]3C(=O)O)C(=O)O)cc12` [Example 1, N-(1(S)-Carboxy-5-[4-(2(S)-hydroxy-3-isopropylaminopropoxy)-1H-indol-2-ylcarboxamido]pentyl)-(S)-alanyl-(S)-proline], for which the IC50 was 0.0014 µM.
For the compound `CC(C)NCC(O)COc1cccc2cc(C(=O)NCCCC[C@H](NC(C)C(=O)N3CCC[C@H]3C(=O)O)C(=O)O)ccc12` (stereo partly drawn) [Example 2, N-(1(S)-Carboxy-5-[5-(2,(R,S)-hydroxy-3-isopropylaminopropoxy)naphth-2-ylcarboxamido]pentyl)-(R,S)-alanyl-(S)-proline bistrifluoroacetate], the IC50 was found to be 0.0135 µM.
The same measure for `CC(C)NCC(O)COc1cccc2ccc(C(=O)NCCCC[C@H](NC(C)C(=O)N3CCC[C@H]3C(=O)O)C(=O)O)cc12` (stereo partly drawn) [Example 3, N-(1(S)-Carboxy-5-[8-(2(R,S)-hydroxy-3-isopropylaminopropoxy)naphth-2--ylcarboxamido]pentyl)-(R,S)-alanyl-(S)-proline bistrifluoroacetate]: 0.0103 µM.
